The assay deals with Bcl-2 (Homo sapiens (Human), UniProt P10415). Put plainly: Time Resolved-Fluorescence Resonance Energy Transfer (TR-FRET) Bcl-2 binding assay with F-Bak peptide probe. The following applies: GST-Bcl-2 1 nM, F-Bak peptide probe 100 nM, Tb-anti-GST antibody 1 nM; Ki by Wang's equation. The procedure: Determination of the utility of compounds having Formula (I) as binders to and inhibitors of anti-apoptotic Bcl-2 proteins was performed using the Time Resolved-Fluorescence Resonance Energy Transfer (TR-FRET) Assay. Tb-anti-GST antibody was purchased from Invitrogen (Catalog No. PV4216).
Representative compounds were serially diluted in dimethyl sulfoxide (DMSO) starting at 50 μM (2× starting concentration; 10% DMSO) and 10 μL were transferred into a 384-well plate. The samples are then mixed on a shaker for 1 minute and incubated for an additional 3 hours at room temperature. For each assay, the probe/antibody and protein/probe/antibody were included on each assay plate as negative and positive controls, respectively. Fluorescence was measured on the ENVISION plate reader (Perkin Elmer) using a 340/35 nm excitation filter and 520/525 (F-Bak peptide) and 495/510 nm (Tb-labeled […] antibody) emission filters Inhibition constants (Ki) are shown in TABLE 2 below and were determined using Wang's equation (Wang Z.-X. An Exact Mathematical Expression For Describing Competitive Binding Of Two Different Ligands To A Protein Molecule. FEBS Lett. 1995, 360:111-4).
The inhibition constant (Ki) is the dissociation constant of an enzyme-inhibitor complex or a protein/small molecule complex, wherein the small molecule is inhibiting binding of one protein to another protein. So a large K, value indicates a low binding affinity and a small Ki value indicates a high binding affinity.
The compounds are therefore expected to have utility in treatment of diseases during which anti-apoptotic Bcl-2 protein is expressed.

Bcl-2, sequence (P10415 whole entry): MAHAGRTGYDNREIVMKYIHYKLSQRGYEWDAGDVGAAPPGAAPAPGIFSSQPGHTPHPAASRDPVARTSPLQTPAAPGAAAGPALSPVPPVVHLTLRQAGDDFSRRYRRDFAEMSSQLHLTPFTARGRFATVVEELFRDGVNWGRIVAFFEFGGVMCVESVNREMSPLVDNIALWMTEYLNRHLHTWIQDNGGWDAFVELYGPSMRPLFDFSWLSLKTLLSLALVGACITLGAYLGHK

Molecule `Cc1nn(CCCl)c(C)c1S(=O)(=O)NC(=O)c1ccc(N2CCN(Cc3ccccc3-c3ccc(Cl)cc3)CC2)cc1` [Example 27, 4-{4-[(4′-chloro-1,1′-biphenyl-2-yl)methyl]piperazin-1-yl}-N-{[1-(2-chloroethyl)-3,5-dimethyl-1H-pyrazol-4-yl]sulfonyl}benzamide] had a Ki of 434 nM.
Turning to `CCC(CC)NC(=O)c1nnc(S(=O)(=O)NC(=O)c2ccc(N3CCN(Cc4ccccc4-c4ccc(Cl)cc4)CC3)cc2)s1` [Example 28, 5-{[(4-{4-[(4′-chloro-1,1′-biphenyl-2-yl)methyl]piperazin-1-yl}benzoyl)amino]sulfonyl}-N-(1-ethylpropyl)-1,3,4-thiadiazole-2-carboxamide], the inhibition constant (Ki) came out at 417 nM.
Then `Cc1nn(C)c(Cl)c1S(=O)(=O)NC(=O)c1ccc(N2CCN(Cc3ccccc3-c3ccc(Cl)cc3)CC2)cc1` [Example 29, 4-{4-[(4′-chloro-1,1′-biphenyl-2-yl)methyl]piperazin-1-yl}-N-[(5-chloro-1,3-dimethyl-1H-pyrazol-4-yl)sulfonyl]benzamide], with 340 nM; and `O=C(NS(=O)(=O)c1cc([N+](=O)[O-])c(N2CCCCC2)s1)c1ccc(N2CCN(Cc3ccccc3-c3ccc(Cl)cc3)CC2)cc1` [Example 30, 4-{4-[(4′-chloro-1,1′-biphenyl-2-yl)methyl]piperazin-1-yl}-N-[(4-nitro-5-piperidin-1-ylthien-2-yl)sulfonyl]benzamide], with 269 nM; and `O=C(NS(=O)(=O)c1ccc(-c2ccno2)o1)c1ccc(N2CCN(Cc3ccccc3-c3ccc(Cl)cc3)CC2)cc1` [Example 31, 4-{4-[(4′-chloro-1,1′-biphenyl-2-yl)methyl]piperazin-1-yl}-N-[(5-isoxazol-5-yl-2-furyl)sulfonyl]benzamide], with 139 nM.
Take `Cc1noc(C)c1S(=O)(=O)NC(=O)c1ccc(N2CCN(Cc3ccccc3-c3ccc(Cl)cc3)CC2)cc1` [Example 32, 4-{4-[(4′-chloro-1,1′-biphenyl-2-yl)methyl]piperazin-1-yl}-N-[(3,5-dimethylisoxazol-4-yl)sulfonyl]benzamide]: affinity was put at a Ki of 438 nM.
To `CC1(C)CCC(CN2CCN(c3ccc(C(=O)NS(=O)(=O)c4cc([N+](=O)[O-])c(NCCCN5CCCC5)s4)c(Oc4ccc5[nH]ccc5c4)c3)CC2)=C(c2ccc(Cl)cc2)C1` [Example 33, 4-(4-{[2-(4-chlorophenyl)-4,4-dimethylcyclohex-1-en-1-yl]methyl}piperazin-1-yl)-2-(1H-indol-5-yloxy)-N-({4-nitro-5-[(3-pyrrolidin-1-ylpropyl)amino]thien-2-yl}sulfonyl)benzamide] belongs 0.649 nM; to `CN(C)CCCNc1sc(S(=O)(=O)NC(=O)c2ccc(N3CCN(CC4=C(c5ccc(Cl)cc5)CC(C)(C)CC4)CC3)cc2Oc2ccc3[nH]ccc3c2)cc1[N+](=O)[O-]` [Example 34, 4-(4-{[2-(4-chlorophenyl)-4,4-dimethylcyclohex-1-en-1-yl]methyl}piperazin-1-yl)-N-[(5-{[3-(dimethylamino)propyl]amino}-4-nitrothien-2-yl)sulfonyl]-2-(1H-indol-5-yloxy)benzamide], 1.79 nM; to `CC1(C)CCC(CN2CCN(c3ccc(C(=O)NS(=O)(=O)c4cc([N+](=O)[O-])c(NCCCN5CCOCC5)s4)c(Oc4ccc5[nH]ccc5c4)c3)CC2)=C(c2ccc(Cl)cc2)C1` [Example 35, 4-(4-{[2-(4-chlorophenyl)-4,4-dimethylcyclohex-1-en-1-yl]methyl}piperazin-1-yl)-2-(1H-indol-5-yloxy)-N-({5-[(3-morpholin-4-ylpropyl)amino]-4-nitrothien-2-yl}sulfonyl)benzamide], 2.07 nM.
Turning to `CN(C)CC[C@H](CSc1ccccc1)Nc1sc(S(=O)(=O)NC(=O)c2ccc(N3CCC(=Cc4ccccc4C(F)(F)F)CC3)cc2)cc1[N+](=O)[O-]` [Example 36, N-{[5-({(1R)-3-(dimethylamino)-1-[(phenylthio)methyl]propyl}amino)-4-nitrothien-2-yl]sulfonyl}-4-{4-[2-(trifluoromethyl)benzylidene]piperidin-1-yl}benzamide], the inhibitory constant (Ki) worked out at 294 nM.
Then `Cc1c(S(=O)(=O)NC(=O)c2ccc(N3CCN(Cc4ccccc4-c4ccc(Cl)cc4)CC3)cc2Oc2ccccc2)sc2ccc(Cl)cc12` [Example 39, 4-{4-[(4′-chloro-1,1′-biphenyl-2-yl)methyl]piperazin-1-yl}-N-[(5-chloro-3-methyl-1-benzothien-2-yl)sulfonyl]-2-phenoxybenzamide], with 20.2 nM; and `Cc1cc(C)n2nc(S(=O)(=O)NC(=O)c3ccc(N4CCN(CC5=C(c6ccc(Cl)cc6)CC(C)(C)CC5)CC4)cc3Oc3cccc(Cl)c3)nc2n1` [Example 40, 2-(3-chlorophenoxy)-4-(4-{[2-(4-chlorophenyl)-4,4-dimethylcyclohex-1-en-1-yl]methyl}piperazin-1-yl)-N-[(5,7-dimethyl[1,2,4]triazolo[1,5-a]pyrimidin-2-yl)sulfonyl]benzamide], with 0.407 nM.
`Cc1cc(C)n2nc(S(=O)(=O)NC(=O)c3ccc(N4CCN(CC5=C(c6ccc(Cl)cc6)CC(C)(C)CC5)CC4)cc3Oc3cc4cc[nH]c4cc3F)nc2n1` [Example 41, 4-(4-{[2-(4-chlorophenyl)-4,4-dimethylcyclohex-1-en-1-yl]methyl}piperazin-1-yl)-N-[(5,7-dimethyl[1,2,4]triazolo[1,5-a]pyrimidin-2-yl)sulfonyl]-2-[(6-fluoro-1H-indol-5-yl)oxy]benzamide] displayed a Ki of 0.053 nM.
The molecule `Cc1cc(C)n2nc(S(=O)(=O)NC(=O)c3ccc(N4CCN(CC5=C(c6ccc(Cl)cc6)CC(C)(C)CC5)CC4)cc3Oc3cc4cc[nH]c4c(F)c3F)nc2n1` [Example 42, 4-(4-{[2-(4-chlorophenyl)-4,4-dimethylcyclohex-1-en-1-yl]methyl}piperazin-1-yl)-2-[(6,7-difluoro-1H-indol-5-yl)oxy]-N-[(5,7-dimethyl[1,2,4]triazolo[1,5-a]pyrimidin-2-yl)sulfonyl]benzamide] came in with a Ki of 0.039 nM.
Molecule `Cc1nc(OC[C@@H]2CN(C(=O)OC(C)(C)C)CCO2)sc1S(=O)(=O)NC(=O)c1ccc(N2CCN(CC3=C(c4ccc(Cl)cc4)CC(C)(C)CC3)CC2)cc1Oc1cnc2[nH]ccc2c1` [Example 43, tert-butyl (2S)-2-{[(5-{[4-(4-{[2-(4-chlorophenyl)-4,4-dimethylcyclohex-1-en-1-yl]methyl}piperazin-1-yl)-2-(1H-pyrrolo[2,3-b]pyridin-5-yloxy)benzoyl]sulfamoyl}-4-methyl-1,3-thiazol-2-yl)oxy]methyl}morpholine-4-carboxylate] yielded a Ki of 46.5 nM. This Ki lies about 1200-fold higher than the previous one.
To `Cc1nc(OC[C@@H]2CN(C(=O)OC(C)(C)C)CCO2)sc1S(=O)(=O)NC(=O)c1ccc(N2CCN(CC3=C(c4ccc(Cl)cc4)CC(C)(C)CC3)CC2)cc1Oc1cccc2[nH]cnc12` [Example 44, tert-butyl (2S)-2-{[(5-{[2-(1H-benzimidazol-4-yloxy)-4-(4-{[2-(4-chlorophenyl)-4,4-dimethylcyclohex-1-en-1-yl]methyl}piperazin-1-yl)benzoyl]sulfamoyl}-4-methyl-1,3-thiazol-2-yl)oxy]methyl}morpholine-4-carboxylate] belongs 24.8 nM.
With `Cc1nc(OCC2(F)CCOCC2)sc1S(=O)(=O)NC(=O)c1ccc(N2CCN(CC3=C(c4ccc(Cl)cc4)CC(C)(C)CC3)CC2)cc1Oc1cnc2[nH]ccc2c1` [Example 45, 4-(4-{[2-(4-chlorophenyl)-4,4-dimethylcyclohex-1-en-1-yl]methyl}piperazin-1-yl)-N-({2-[(4-fluorotetrahydro-2H-pyran-4-yl)methoxy]-4-methyl-1,3-thiazol-5-yl}sulfonyl)-2-(1H-pyrrolo[2,3-b]pyridin-5-yloxy)benzamide], affinity was put at a Ki of 6.73 nM.
Consider `Cc1nc(OCC2(F)CCOCC2)sc1S(=O)(=O)NC(=O)c1ccc(N2CCN(CC3=C(c4ccc(Cl)cc4)CC(C)(C)CC3)CC2)cc1Oc1cccc2[nH]cnc12` [Example 46, 2-(1H-benzimidazol-4-yloxy)-4-(4-{[2-(4-chlorophenyl)-4,4-dimethylcyclohex-1-en-1-yl]methyl}piperazin-1-yl)-N-({2-[(4-fluorotetrahydro-2H-pyran-4-yl)methoxy]-4-methyl-1,3-thiazol-5-yl}sulfonyl)benzamide], for which the affinity corresponds to a Ki of 1.75 nM. Compared with the last molecule, the Ki is about 3.8-fold lower.
Then `Cc1nc(OC[C@@H]2CN(C(=O)OC(C)(C)C)CCO2)sc1S(=O)(=O)NC(=O)c1ccc(N2CCN(CC3=C(c4ccc(Cl)cc4)CC(C)(C)CC3)CC2)cc1Oc1cccc2[nH]ncc12` [Example 47, (S)-tert-butyl 2-((5-(N-(2-(1H-indazol-4-yloxy)-4-(4-((2-(4-chlorophenyl)-4,4-dimethylcyclohex-1-enyl)methyl)piperazin-1-yl)benzoyl)sulfamoyl)-4-methylthiazol-2-yloxy)methyl)morpholine-4-carboxylate], with 20.4 nM; and `Cc1nc(OCC2(F)CCOCC2)sc1S(=O)(=O)NC(=O)c1ccc(N2CCN(CC3=C(c4ccc(Cl)cc4)CC(C)(C)CC3)CC2)cc1Oc1cccc2[nH]ncc12` [Example 48, 2-(1H-indazol-4-yloxy)-4-(4-((2-(4-chlorophenyl)-4,4-dimethylcyclohex-1-enyl)methyl)piperazin-1-yl)-N-(2-((4-fluorotetrahydro-2H-pyran-4-yl)methoxy)-4-methylthiazol-5-ylsulfonyl)benzamide], with 1.64 nM.

The values above are taken from patent US9156856B2, “Apoptosis-inducing agents for the treatment of cancer and immune and autoimmune diseases” (AbbVie Inc., priority 2009, dated 2015).
